Our source for the IC50 values is PMC9886266, “New [1,2,4]triazolo[4,3-c]quinazolines as intercalative Topo II inhibitors: Design, synthesis, biological evaluation, and in silico studies” (PLOS ONE, 2023).

The structures appear in SMILES notation.

Test [1] deals with HepG2 cell line. In words: MTT anti-proliferative assay, HepG2. The following applies: Homo sapiens, 48 h, three independent experiments, read-out: In vitro cytotoxicity IC50, HepG2. It is filed as cell-based. As for the experimental part: (§1) In vitro antiproliferative activities of the target molecules were assessed against two human cancer cell lines namely, hepatocellular carcinoma (HepG2) and colorectal carcinoma (HCT-116) using MTT assay.
(§2) The anti-proliferative activity of the synthesized compounds was assessed using MTT assay protocol. A panel of human cancer cell lines namely, colorectal carcinoma (HCT-116) and hepatocellular carcinoma (HepG2) was used in this test. Doxorubicin was used as a positive control. The cell lines were got from ATCC (American Type Culture Collection) via the Holding company for biological products and vaccines (VACSERA, Cairo, Egypt). The anti-proliferative activities of the tested compounds were determined quantitatively as follows:
(§3) At first, the cells were cultured into a medium of RPMI-1640 with 10% fetal bovine serum. Then, two different antibiotics were added at 37°C in a 5% CO2 incubator: penicillin (100 units/mL) and streptomycin (100 μg/mL). Next, we seeded the cells in a 96-well plate by a density of 1.0 x 10^4 cells / well at 37°C for 48 h under 5% CO2. The synthesized compounds with different concentrations were applied into the cell lines and incubated for 48 h. After 48 h, 20 μl of MTT solution (5mg/mL) was added and incubated for 4 h. Then, DMSO (100 μl) was added into each well to dissolve the formed purple formazan. After that, a colorimetric assay was measured and recorded at absorbance of 570 nm using a plate reader (EXL 800, USA). The relative cell viability in percentage was calculated as (A570 of treated samples/A570 of untreated sample) X 100.
(§4) S2: Biological evaluation
(§5) S2.1. In vitro cytotoxic activity
(§6) The anti-proliferative activity of the synthesized compounds was assessed using MTT assay protocol. A panel of human cancer cell lines namely, colorectal carcinoma (HCT-116) and hepatocellular carcinoma (HepG2) was used in this test. As we targeted the DNA and Topo […]
(§7) cell lines were got from ATCC (American Type Culture Collection) via the Holding company for biological products and vaccines (VACSERA, Cairo, Egypt). The anti -proliferative activities of the tested compounds were determined quantitatively as follows:
(§8) At first, the cells were cultured into a medium of RPMI-1640 with 10% fetal bovine serum.
(§9) Then, two different antibiotics were added at 37 ᵒC in a 5% CO2 incubator: penicillin (100 units/mL) and streptomycin (100 µg/mL). Next, we seeded the cells in a 96 -well plate by a density of 1.0 x 10^4 cells / well at 37 ᵒC for 48 h under 5% CO2. The synthesized compounds with different concentrations were applied into the cell lines and incubated for 48 h. After 48 h, 20 µl of MTT solution (5mg/mL) was added and incubated for 4 h. Then, DMSO (100 µl) was added into each well to dissolve the formed purple formazan. After that, a colorimetric assay was measured and recorded at absorbance of 570 nm using a plate reader (EXL 800, USA). The relative cell viability in percentage was calculated as (A570 of treated samples/A570 of untreated sample) X 100. […]
Background: Formazan colour is commonly taken as a measure of viable cells.

The test system of test [2] is HCT-116 cell line. Nature of the test: MTT anti-proliferative assay, HCT-116. Format: cell-based. The following applies: Homo sapiens, 48 h, three independent experiments, read-out: In vitro cytotoxicity IC50, HCT-116. How it is done: as §1, §2, §3, §4, §5, §6, §7, §8, §9

As for `CCCNc1nc2ccccc2c2nnc(C(F)(F)F)n12` [Compound 16, N-Propyl-3-(trifluoromethyl)-[1,2,4]triazolo[4,3-c]quinazolin-5-amine], the results for the IC50 in test [1] and in test [2] were 6.29 ± 0.3 µM and 2.44 ± 0.1 µM, respectively.
